Data reported in US20080153700A1, “Fungicidal Mixtures” (Basf Aktiengesellschaft, priority 2004, published 2008).

Test system: Plasmopara viticola
Experiment: activity against peronospora of grapevines caused by Plasmopara viticola (protective spray on potted vines)
Format: in vivo, Plasmopara viticola on vines of the cultivar "Riesling"
Conditions: individual active compound, untreated control 88% infection
Procedure: The active compounds, separately or jointly, were prepared as a stock solution comprising 0.25% by weight of active compound in acetone or DMSO. 1% by weight of the emulsifier Uniperol® EL (wetting agent having emulsifying and dispersant action based on ethoxylated alkylphenols) was added to this solution, and the mixture was diluted with water to the desired concentration.
Use example—activity against peronospora of grapevines caused by Plasmopara viticola
Leaves of potted vines of the cultivar “Riesling” were sprayed to runoff point with an aqueous suspension having the concentration of active compound stated below. The next day, the undersides of the leaves were inoculated with an aqueous zoospore suspension of Plasmopara viticola. The grapevines were then initially placed in a water-vapor-saturated chamber at 24° C. for 48 hours and then in a greenhouse at 20-30° C. for 5 days. After this period of time, the plants were again placed in a humid chamber for 16 hours to promote sporangiophore eruption. The extent of the development of the disease on the undersides of the leaves was then determined visually.
The visually determined percentages of infected leaf areas were converted into efficacies in % of the untreated control:
The efficacy (E) is calculated as follows using Abbot's formula: […]
α corresponds to the fungicidal infection of the treated plants in % and β corresponds to the fungicidal infection of the untreated (control) plants in %
An efficacy of 0 means that the infection level of the treated plants corresponds to that of the untreated control plants; an efficacy of 100 means that the treated plants were not infected.
The expected efficacies of mixtures of active compounds were determined using Colby's formula (Colby, S. R. “Calculating synergistic and antagonistic responses of herbicide combinations”, Weeds, 15, 20-22, 1967) and compared with the observed efficacies.
E expected efficacy, expressed in % of the untreated control, when using the mixture of the active compounds A and B at the concentrations a and b x efficacy, expressed in % of the untreated control, when using the active compound A at the concentration a y efficacy, expressed in % of the untreated control, when using the active compound B at the concentration b

Cc1ccc(N(SC(F)(Cl)Cl)S(=O)(=O)N(C)C)cc1 [compound II, N-dichlorofluoromethylthio-N′,N′-dimethyl-N-p-tolylsulfamide]
Efficacy in % of the untreated control (16 ppm in the spray liquor): 0% | Efficacy in % of the untreated control (63 ppm in the spray liquor): 21%

CC1CCN(c2c(-c3c(F)cc(F)cc3F)c(Cl)nc3ncnn23)CC1 [compound I, 5-chloro-7-(4-methylpiperidin-1-yl)-6-(2,4,6-trifluorophenyl)[1,2,4]triazolo[1,5-a]pyrimidine]
Efficacy in % of the untreated control (16 ppm in the spray liquor): 55% | Efficacy in % of the untreated control (63 ppm in the spray liquor): 66%
